Patent US20250057989A1, “TMEM-MCD IN THE MINIMALLY INVASIVE ASSESSMENT OF THE ACTIVITY STATUS OF TMEM IN ITS DISSEMINATION OF TUMOR CELLS” (Albert Einstein College of Medicine, priority 2018, published 2025)
Entries after “also recorded” stand apart in the source; their conditions may differ.

Tests used:
[1] = tested on: circulating tumor cells; conditions: mice with breast cancer, chemotherapy-induced, oral administration; cited from earlier work
[2] = tested on: TMEM; assay: TMEM-MRI test (Uth) in PyMT mouse model, control vs rebastinib; format: in vivo; conditions: mice, FIGS. 2-3
Excerpt: FIGS. 3A-3E. Evaluation of TMEM-MRI assay sensitivity and its values as a companion diagnostic is illustrated by using TMEM-MRI to detect the effect of the commercially available TMEM inhibitor Rebastinib in PyMT mouse model. FIG. 3A depicts a schematic illustration and cohort composition of the MMTV-PyMT Control vs Rebastinib (Ctrl-Reb) transplantation model. FIG. 3B is a chart depicting upper threshold ratio (Uth) of Ctrl-and rebastinib (Reb)-treated tumors. FIG. 3C depicts extravascular dextran assay, showing TMEM association with leaky (lower row), but no association of TMEM with non-leaky (upper row) blood vessel. FIG. 3D is a chart depicting the comparison between extravascular dextran leakiness between Ctrl and Reb-treated tumors. FIG. 3E is a chart depicting circulating tumor cells in mice treated with rebastinib or vehicle control. […]
A new assay for TMEM activity has been developed and validated. […] Using intravenously injected Gd-DTPA, in a dynamic and quantitative assessment allowing assessment of the change in tissue permeability induced by TMEM, with adequate temporal and spatial resolution, the permeability change associated with the TMEM occurrence can be measured with high spatial resolution. […] TMEM facilitated increase in tissue diffusion, measured using the apparent diffusion constant or using Diffusion Tensor Imaging (DTI) may also be developed to detect TMEM. […]

[3] = tested on: TMEM; conditions: mice with breast cancer, oral administration; cited from earlier work
[4] = tested on: TMEM function (CTCs); assay: Clinical trial NCT02824575: oral rebastinib to inhibit TMEM function (CTCs) in breast cancer patients; format: in vivo, human
[5] = tested on: tumor cells; conditions: mouse models of breast cancer; cited from earlier work

In the case of `CNC(=O)c1cc(Oc2ccc(NC(=O)Nc3cc(C(C)(C)C)nn3-c3ccc4ncccc4c3)c(F)c2)ccn1` [rebastinib, 4-[4-[(5-tert-butyl-2-quinolin-6-ylpyrazol-3-yl)carbamoylamino]-3-fluorophenoxy]-N-methylpyridine-2-carboxamide], the “cancer cell dissemination (circulating tumor cells in the blood, CTCs)” value [1] is listed as “inhibited”, the “TMEM activity detected by TMEM-MRI test” value [2] is listed as “inhibition of TMEM activity” and the “chemotherapy-induced TMEM activity (multiphoton imaging of the burst)” value [3] is listed as “inhibited”. The “tumor cell dissemination (CTCs) in patients” value [4] was “prevents dissemination of tumor cells; also recorded: most patients achieved complete inhibition of tumor cell dissemination” and the “dissemination of tumor cells” value [5] was “prevents dissemination of tumor cells”.
